In patent US8741944B2, “Anti-infective agents against intracellular pathogens” (priority 2007, dated 2014):
Like-named read-outs stand apart in the source and are kept apart here.

Key:
OVCAR-3 (Ovarian Cancer) = test: NCI DTP tumor cell line screen (SRB), OVCAR-3
Description: (§1) For a typical screening experiment, cells are inoculated into 96 well microtiter plates in 100 μL at plating densities ranging from 5,000 to 40,000 cells/well depending on the doubling time of individual cell lines. After cell inoculation, the microtiter plates are incubated at 37° C., 5% CO2, 95% air and 100% relative humidity for 24 h prior to addition of experimental drugs.
(§2) After 24 h, two plates of each cell line are fixed in situ with TCA, to represent a measurement of the cell population for each cell line at the time of drug addition (Tz). Experimental drugs are solubilized in dimethyl sulfoxide at 400-fold the desired final maximum test concentration and stored frozen prior to use. At the time of drug addition, an aliquot of frozen concentrate is thawed and diluted to twice the desired final maximum test concentration with complete medium containing 50 μg/ml gentamicin. Additional four, 10-fold or ½ log serial dilutions are made to provide a total of five drug concentrations plus control. Aliquots of 100 μl of these different drug dilutions are added to the appropriate microtiter wells already containing 100 μl of medium, resulting in the required final drug concentrations.
(§3) Following drug addition, the plates are incubated for an additional 48 h at 37° C., 5% CO2, 95% air, and 100% relative humidity. For adherent cells, the assay is terminated by the addition of cold TCA. Cells are fixed in situ by the gentle addition of 50 μl of cold 50% (w/v) TCA (final concentration, 10% TCA) and incubated for 60 minutes at 4° C. The supernatant is discarded, and the plates are washed five times with tap water and air dried. Sulforhodamine B (SRB) solution (1001) at 0.4% (w/v) in 1% acetic acid is added to each well, and plates are incubated for 10 minutes at room temperature. After staining, unbound dye is removed by washing five times with 1% acetic acid and the plates are air dried. Bound stain is subsequently solubilized with 10 mM trizma base, and the absorbance is read on an automated plate reader at a wavelength of 515 nm. For suspension cells, the methodology is the same except that the assay is terminated by fixing settled cells at the bottom of the wells by gently adding 50 μl of 80% TCA (final concentration, 16% TCA). Using the seven absorbance measurements [time zero, (Tz), control growth, (C), and test growth in the presence of drug at the five concentration levels (Ti)], the percentage growth is calculated at each of the drug concentrations levels. Percentage growth inhibition is calculated as: [(Ti−Tz)/(C−Tz)]×100 for concentrations for which Ti>/=Tz [(Ti−Tz)/Tz]×100 for concentrations for which Ti<Tz
(§4) Three dose response parameters are calculated for each experimental agent. […] The drug concentration resulting in total growth inhibition (TGI) is calculated from Ti=Tz. […] Values are calculated for each of these three parameters if the level of activity is reached; however, if the effect is not reached or is exceeded, the value for that parameter is expressed as greater or less than the maximum or minimum concentration tested.

MALME-3M (Melanoma) = test: NCI DTP tumor cell line screen (SRB), MALME-3M
Description: as §1, §2, §3, §4

OVCAR-8 (Ovarian Cancer) = test: NCI DTP tumor cell line screen (SRB), OVCAR-8
Description: as §1, §2, §3, §4

M14 (Melanoma) = test: NCI DTP tumor cell line screen (SRB), M14
Description: as §1, §2, §3, §4

[1] = tested on: A549/ATCC (Non-Small Cell Lung Cancer); test: NCI DTP tumor cell line screen (SRB), A549/ATCC
Description: as §1, §2, §3, §4

TK-10 (Renal Cancer) = test: NCI DTP tumor cell line screen (SRB), TK-10
Description: as §1, §2, §3, §4

[2] = tested on: NCI-H522 (Non-Small Cell Lung Cancer)
Description: as §1, §2, §3, §4

SR (Leukemia) = test: NCI DTP tumor cell line screen (SRB), SR
Description: as §1, §2, §3, §4

IGROV1 (Ovarian Cancer) = test: NCI DTP tumor cell line screen (SRB), IGROV1
Description: as §1, §2, §3, §4

OVCAR-5 (Ovarian Cancer) = test: NCI DTP tumor cell line screen (SRB), OVCAR-5
Description: as §1, §2, §3, §4

786-0 (Renal Cancer) = test: NCI DTP tumor cell line screen (SRB), 786-0
Description: as §1, §2, §3, §4

UO-31 (Renal Cancer) = test: NCI DTP tumor cell line screen (SRB), UO-31
Description: as §1, §2, §3, §4

HT29 (Colon Cancer) = test: NCI DTP tumor cell line screen (SRB), HT29
Description: as §1, §2, §3, §4

T-47D (Breast Cancer) = test: NCI DTP tumor cell line screen (SRB), T-47D
Description: as §1, §2, §3, §4

UACC-62 (Melanoma) = test: NCI DTP tumor cell line screen (SRB), UACC-62
Description: as §1, §2, §3, §4

SK-OV-3 (Ovarian Cancer) = test: NCI DTP tumor cell line screen (SRB), SK-OV-3
Description: as §1, §2, §3, §4

## 4-[5-(2-Phenanthrenyl)-3-(trifluoromethyl)-1H-pyrazol-1-yl]-phenyl -guanidine [Compound 71]
OVCAR-3 (Ovarian Cancer)
  GI50: 1400 nM
  TGI: 2.70E−06
OVCAR-3 (Ovarian Cancer); Log10 Concentration −4.0
  Percent Growth: −72%
OVCAR-3 (Ovarian Cancer); Log10 Concentration −5.0
  Percent Growth: −100%
OVCAR-3 (Ovarian Cancer); Log10 Concentration −6.0
  Percent Growth: 76%
OVCAR-3 (Ovarian Cancer); Log10 Concentration −8.0
  Percent Growth: 91%
MALME-3M (Melanoma)
  GI50: 1010 nM
  TGI: 2.33E−06
MALME-3M (Melanoma); Log10 Concentration −4.0
  Percent Growth: −50%
MALME-3M (Melanoma); Log10 Concentration −6.0
  Percent Growth: 50%
MALME-3M (Melanoma); Log10 Concentration −8.0
  Percent Growth: 52%
OVCAR-8 (Ovarian Cancer); OVCAR 8
  GI50: 1690 nM
  TGI: 3.05E−06
OVCAR-8 (Ovarian Cancer); OVCAR 8, Log10 Concentration −4.0
  Percent Growth: −69%
OVCAR-8 (Ovarian Cancer); OVCAR 8, Log10 Concentration −5.0
  Percent Growth: −100%
OVCAR-8 (Ovarian Cancer); OVCAR 8, Log10 Concentration −6.0
  Percent Growth: 94%
OVCAR-8 (Ovarian Cancer); OVCAR 8, Log10 Concentration −8.0
  Percent Growth: 92%
M14 (Melanoma)
  GI50: 1480 nM
  TGI: 2.80E−06
M14 (Melanoma); Log10 Concentration −4.0
  Percent Growth: −33%
M14 (Melanoma); Log10 Concentration −5.0
  Percent Growth: −100%
M14 (Melanoma); Log10 Concentration −7.0
  Percent Growth: 82%
[1]
  GI50: 1680 nM
  TGI: 3.04E−06
[1]; Log10 Concentration −4.0
  Percent Growth: −63%
[1]; Log10 Concentration −5.0
  Percent Growth: −100%
TK-10 (Renal Cancer)
  GI50: 1320 nM
  TGI: 2.59E−06
TK-10 (Renal Cancer); Log10 Concentration −4.0
  Percent Growth: −64%
TK-10 (Renal Cancer); Log10 Concentration −5.0
  Percent Growth: −100%
TK-10 (Renal Cancer); Log10 Concentration −6.0
  Percent Growth: 71%
TK-10 (Renal Cancer); Log10 Concentration −7.0
  Percent Growth: 90%
TK-10 (Renal Cancer); Log10 Concentration −8.0
  Percent Growth: 78%
[2]
  GI50: 1450 nM
  TGI: 2.82E−06
[2]; Log10 Concentration −4.0
  Percent Growth: −43%
[2]; Log10 Concentration −5.0
  Percent Growth: −95%
[2]; Log10 Concentration −6.0
  Percent Growth: 78%
[2]; Log10 Concentration −8.0
  Percent Growth: 82%
SR (Leukemia)
  GI50: 38.6 nM
  TGI: 3.79E−07
SR (Leukemia); Log10 Concentration −4.0
  Percent Growth: −21%
SR (Leukemia); Log10 Concentration −5.0
  Percent Growth: −36%
SR (Leukemia); Log10 Concentration −6.0
  Percent Growth: −30%
SR (Leukemia); Log10 Concentration −7.0
  Percent Growth: 42%
SR (Leukemia); Log10 Concentration −8.0
  Percent Growth: 62%
IGROV1 (Ovarian Cancer)
  GI50: 1070 nM
  TGI: 2.26E−06
IGROV1 (Ovarian Cancer); Log10 Concentration −4.0
  Percent Growth: −53%
IGROV1 (Ovarian Cancer); Log10 Concentration −5.0
  Percent Growth: −100%
IGROV1 (Ovarian Cancer); Log10 Concentration −6.0
  Percent Growth: 55%
IGROV1 (Ovarian Cancer); Log10 Concentration −7.0
  Percent Growth: 83%
IGROV1 (Ovarian Cancer); Log10 Concentration −8.0
  Percent Growth: 85%
OVCAR-5 (Ovarian Cancer)
  GI50: 1730 nM
  TGI: 3.11E−06
OVCAR-5 (Ovarian Cancer); Log10 Concentration −4.0
  Percent Growth: −8%
OVCAR-5 (Ovarian Cancer); Log10 Concentration −5.0
  Percent Growth: −100%
OVCAR-5 (Ovarian Cancer); Log10 Concentration −6.0
  Percent Growth: 97%
OVCAR-5 (Ovarian Cancer); Log10 Concentration −8.0
  Percent Growth: 95%
786-0 (Renal Cancer)
  GI50: 1490 nM
  TGI: 2.91E−06
786-0 (Renal Cancer); Log10 Concentration −4.0
  Percent Growth: −30%
786-0 (Renal Cancer); Log10 Concentration −6.0
  Percent Growth: 80%
UO-31 (Renal Cancer)
  GI50: 1570 nM
  TGI: 2.92E−06
UO-31 (Renal Cancer); Log10 Concentration −4.0
  Percent Growth: −35%
UO-31 (Renal Cancer); Log10 Concentration −5.0
  Percent Growth: −100%
UO-31 (Renal Cancer); Log10 Concentration −7.0
  Percent Growth: 94%
UO-31 (Renal Cancer); Log10 Concentration −8.0
  Percent Growth: 91%
HT29 (Colon Cancer)
  GI50: 1500 nM
  TGI: 2.83E−06
HT29 (Colon Cancer); Log10 Concentration −4.0
  Percent Growth: −99%
HT29 (Colon Cancer); Log10 Concentration −5.0
  Percent Growth: −100%
HT29 (Colon Cancer); Log10 Concentration −6.0
  Percent Growth: 82%
HT29 (Colon Cancer); Log10 Concentration −7.0
  Percent Growth: 91%
HT29 (Colon Cancer); Log10 Concentration −8.0
  Percent Growth: 95%
T-47D (Breast Cancer)
  GI50: < 10 nM
  TGI: 1.98E−06
T-47D (Breast Cancer); Log10 Concentration −4.0
  Percent Growth: −53%
T-47D (Breast Cancer); Log10 Concentration −5.0
  Percent Growth: −76%
T-47D (Breast Cancer); Log10 Concentration −6.0
  Percent Growth: 32%
T-47D (Breast Cancer); Log10 Concentration −7.0
  Percent Growth: 47%
T-47D (Breast Cancer); Log10 Concentration −8.0
  Percent Growth: 36%
UACC-62 (Melanoma)
  GI50: 1440 nM
  TGI: 2.74E−06
UACC-62 (Melanoma); Log10 Concentration −4.0
  Percent Growth: −60%
UACC-62 (Melanoma); Log10 Concentration −5.0
  Percent Growth: −100%
UACC-62 (Melanoma); Log10 Concentration −6.0
  Percent Growth: 78%
UACC-62 (Melanoma); Log10 Concentration −7.0
  Percent Growth: 83%
SK-OV-3 (Ovarian Cancer)
  GI50: 1430 nM
  TGI: 2.94E−06
SK-OV-3 (Ovarian Cancer); Log10 Concentration −4.0
  Percent Growth: −30%
SK-OV-3 (Ovarian Cancer); Log10 Concentration −5.0
  Percent Growth: −85%
SK-OV-3 (Ovarian Cancer); Log10 Concentration −6.0
  Percent Growth: 75%
SK-OV-3 (Ovarian Cancer); Log10 Concentration −7.0
  Percent Growth: 91%
